Patent publication US20220041616A1, “SPIRO COMPOUND AND MEDICAL USES THEREOF” (The National Institutes of Pharmaceutical R&D Co., Ltd., priority 2018, published 2022)

Biological target: T1, Pyruvate Carboxylase (PC) (Bos taurus, UniProt Q29RK2)
T1 construct: purchased Sigma
T1 sequence (Q29RK2 21-1178): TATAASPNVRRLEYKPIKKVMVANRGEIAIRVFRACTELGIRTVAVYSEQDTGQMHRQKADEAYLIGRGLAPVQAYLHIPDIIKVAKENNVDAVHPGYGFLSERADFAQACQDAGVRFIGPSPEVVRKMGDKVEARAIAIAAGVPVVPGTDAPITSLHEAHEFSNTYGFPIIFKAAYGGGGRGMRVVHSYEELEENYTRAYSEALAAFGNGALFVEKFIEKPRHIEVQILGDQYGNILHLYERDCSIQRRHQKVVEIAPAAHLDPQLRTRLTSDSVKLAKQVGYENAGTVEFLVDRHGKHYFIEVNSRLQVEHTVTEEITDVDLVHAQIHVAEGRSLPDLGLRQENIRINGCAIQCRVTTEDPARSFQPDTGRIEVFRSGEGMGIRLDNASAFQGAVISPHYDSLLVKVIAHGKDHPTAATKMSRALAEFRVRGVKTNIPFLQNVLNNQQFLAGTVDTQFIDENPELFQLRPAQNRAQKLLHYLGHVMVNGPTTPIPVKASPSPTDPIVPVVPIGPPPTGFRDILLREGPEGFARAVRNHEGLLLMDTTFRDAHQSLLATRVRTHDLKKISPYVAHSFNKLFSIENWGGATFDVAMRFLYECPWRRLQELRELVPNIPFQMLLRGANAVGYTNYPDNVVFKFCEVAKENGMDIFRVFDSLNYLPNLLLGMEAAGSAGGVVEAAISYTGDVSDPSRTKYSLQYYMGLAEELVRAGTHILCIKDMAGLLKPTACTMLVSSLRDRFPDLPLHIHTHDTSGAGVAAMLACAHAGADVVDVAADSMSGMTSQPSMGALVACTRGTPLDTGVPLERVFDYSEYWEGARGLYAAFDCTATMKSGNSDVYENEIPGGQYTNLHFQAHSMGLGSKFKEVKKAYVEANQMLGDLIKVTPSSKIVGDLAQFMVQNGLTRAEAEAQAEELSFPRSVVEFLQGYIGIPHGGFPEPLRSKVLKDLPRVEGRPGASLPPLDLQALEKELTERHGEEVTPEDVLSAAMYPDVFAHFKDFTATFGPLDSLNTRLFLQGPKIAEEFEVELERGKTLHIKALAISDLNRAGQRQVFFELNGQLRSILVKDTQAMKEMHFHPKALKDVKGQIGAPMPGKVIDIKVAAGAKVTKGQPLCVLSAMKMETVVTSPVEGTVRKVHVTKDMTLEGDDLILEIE
Experiment: In vitro inhibition of pyruvate carboxylase (PC) activity, coupling method
Assay type: biochemical
Details: top concentration 50 μM
Method: The in vitro analysis of the inhibitory effect of the present compound on PC activity was carried out by a coupling method. The PC reaction product oxaloacetate and β-NADH undergo a redox reaction under the catalysis of malate dehydrogenase, generating malic acid and NAD^+. Accordingly, the inhibition ability of the compound on PC can be reflected by detecting the change of absorbance value at 340 nm.
b. 65.7 μL PC enzyme reaction buffer (201 mM triethanolamine, 7.5 mM magnesium sulfate, 0.18% bovine serum albumin) was added to each well of a 96-well dilution plate (249944, Nunc), and then 1 μL of the serially diluted compound to be tested in step a was added to each well.
c. 10 μL of compound (prepared in step b) was added to each well of a 384-well test plate (3702, Corning). The reaction system with ZnCl2 at a final concentration of 500 μM was used as positive control; the reaction system with no compound but DMSO at a final concentration of 0.5% was used as negative control.
d. 10 μL of PC enzyme (Sigma, 0.15 U/ml stock solution of PC enzyme dissolved in 0.15 mM Tris-HCl pH 7.4, 0.006 mM Mg(AcO)2, 0.15% glycerol, and 0.003 mM EDTA) was added to each well of the 384-well test plate (prepared in step c), centrifuged at 1000 rpm for 1 min, and incubated at room temperature for 15 min.
e. 10 μL of substrate mixture (1.5 mM sodium pyruvate, 1.5 mM ATP, 0.15 mM acetyl-CoA, 45 mM sodium bicarbonate, 0.69 mM NADH, 3 U/ml malate dehydrogenase, 201 mM triethanolamine, 7.5 mM magnesium sulfate, and 0.18% bovine serum albumin) was added to each well of the 384-well test plate (prepared in step d), and centrifuged at 1000 rpm for 1 min. The final concentrations of each component in the PC enzymatic reaction system: 0.05 U/ml pyruvate carboxylase, 0.5 mM sodium pyruvate, 0.5 mM ATP, 15 mM sodium bicarbonate, 0.23 mM β-NADH, 1 U/ml malic acid dehydrogenase, and 0.05 mM acetyl-CoA. Test compound concentrations: 50 μM, 16.667 μM, 5.556 μM, 1.852 μM, 0.617 μM, 0.206 μM, 0.0686 μM, 0.0229 μM, 0.00763 μM, 0.00254 μM, 0.000847 μM and 0.000282 μM. The final concentration of DMSO was 0.5% (v/v).
f. The absorbance at 340 nm was read by using EnVision 2104 plate reader (Perkin Elmer) with reading every 1 min for 40 min.
GraphPad Prism 6 software was used to perform a linear fit, and the concentration of each compound and the slope of the positive and negative controls were calculated. The inhibition percentage was calculated according to the following formula: 100×[1−(compound−average value of positive control)/(average value of negative control−average value of positive control)].
IC50 of the compound was obtained using GraphPad Prism 6 software according to the following nonlinear fitting formula:
Y=Bottom+(Top−Bottom)/(1+10^((Log IC50−X)×HillSlope)), […]

Row | IC50 [µM] | Structure (SMILES)
1 | > 50 | COc1ccccc1C(CN1C(=O)C2(CCC(C(=O)O)C2)C(=O)c2c1sc(-c1ncco1)c2C)OC1CCOCC1 (single isomer, unassigned) [Compound 5b, 7′-(2-(2-methoxyphenyl)-2-((tetrahydro-2H-pyran-4-yl)oxy)ethyl)-3′-methyl-2′-(oxazol-2-yl)-4′,6′-dioxo-6′,7′-dihydro-4′H-spiro[cyclopentane-1,5′-thieno[2,3-b]pyridine]-3-carboxylic Acid]
2 | > 50 | COc1ccccc1C(CN1C(=O)C2(CC(C(=O)O)C2)C(=O)c2c1sc(-c1ncco1)c2C)OC1CCOCC1 (single isomer, unassigned) [Compound 8d, 7′-(2-(2-methoxyphenyl)-2-((tetrahydro-2H-pyran-4-yl)oxy)ethyl)-3′-methyl-2′-(oxazol-2-yl)-4′,6′-dioxo-6′,7′-dihydro-4′H-spiro[cyclobutane-1,5′-thieno[2,3-b]pyridine]-3-carboxylic Acid]
3 | > 50 | COc1ccccc1C(CN1C(=O)C2(CC(C(=O)O)C2)C(=O)c2c1sc(-c1ncco1)c2C)OC1CCOCC1 (mixture of isomers) [Compound 8, 7′-(2-(2-methoxyphenyl)-2-((tetrahydro-2H-pyran-4-yl)oxy)ethyl)-3′-methyl-2′-(oxazol-2-yl)-4′,6′-dioxo-6′,7′-dihydro-4′H-spiro[cyclobutane-1,5′-thieno[2,3-b]pyridine]-3-carboxylic Acid]
4 | > 50 | COc1ccccc1[C@H](CN1c2sc(-c3ncco3)c(C)c2C(=O)[C@]2(C[C@H](C(=O)O)C2)C1=O)OC1CCOCC1 [Compound 8c, 7′-(2-(2-methoxyphenyl)-2-((tetrahydro-2H-pyran-4-yl)oxy)ethyl)-3′-methyl-2′-(oxazol-2-yl)-4′,6′-dioxo-6′,7′-dihydro-4′H-spiro[cyclobutane-1,5′-thieno[2,3-b]pyridine]-3-carboxylic Acid]
